We go through one substance from patent publication US20220204577A1, “Synthetic Peptides With Affinity for the Interleukin-10 Receptor, Pharmaceutical Composition and Use Thereof as Immunomodulators for Treating Autoimmune, Inflammatory or Allergic Diseases” (Universidade Federal de Uberlândia, priority 2019, published 2022).

Experiment [1] deals with IFN signaling pathway. The experiment can be described thus: IFN signaling pathway (SEAP) in Jurkart-Dual reporter cells, peptide pre-treatment then IFN-α. The experiment is classed as cell-based. The settings on record: peptide 1 hour, then IFN-α (104 EU/ml); 10 μM; 12 hours. On the procedure:
Therefore, we cannot confirm whether they were able to affect the activation pathway (FIGS. 6A, B, and C) in the same or better way than the negative control (rIL-10). In the assays shown in FIGS. 5 (A, B, and C) and 6 (A, B, and C), IFN expression was analyzed in Jurkart-Dual reporter cells. In the assays shown in FIGS. 5 A, B, and C, cells were treated with peptides for 1 hour followed by the addition of IFN-α (104 EU/ml). Secreted Embryonic Alkaline Phosphatase (SEAP) production was measured after 12 hours of treatment (FIG. 5A), 24 hours of treatment (FIG. 5B), and 48 hours of treatment (FIG. 5C). In the assays shown in FIGS. 6 A, B, and C, cells were treated with IFN-α (104 EU/ml) for 1 hour, and then peptides were added. SEAP production was measured after (D) 12 hours of treatment (E) 24 hours of treatment, and (F) 48 hours of treatment. IFN-α (104 EU/mL) was used as a positive control and rIL-10 (0.4 ng/mL) as a negative control. * P<0.05.

Experiment [2] relates to NFκB, IFN, or TLR4 signaling pathways. Briefly: Reporter cell lines treated with peptides alone (no activating molecule). The experiment is classed as cell-based. The settings on record: various concentrations, 12, 24 and 48 hours. The method, then: To investigate the ability of the peptides to interfere with the NFkB, IFN, and TLR4 pathways, reporter cell lines were used. To analyze whether the isolated peptides (without activation molecules) could induce any type of activation, the isolated peptides were tested in the cell lines during 12, 24, and 48 hours of treatment. […] As an example, FIGS. 2A, 2B, and 2C show an analysis of NFkB expression after stimulation with the synthesized peptides described in this report. The cells were treated with the synthesized peptides Pep 1, Pep 2, Pep 3, and Pep 4 at various concentrations for 12, 24, and 48 hours, without activating molecules. Luciferase was then measured after 12 hours of treatment (FIG. 2A), 24 hours of treatment (FIG. 2B), and 48 hours of treatment (FIG. 2C). […] TNF-α (200 ng/mL) was used as a positive control.

Positions of bridges follow the written chain, without caps; N, C: chain ends. No end group written: not given here.

“Pep 1: synthetic peptide with affinity to the Interleukin-10 receptor, SEQ ID No 01, with disulfide bridges (HACSAVIKSSCGGGS; disulfide 3-11 (inferred))”: the “activation of the IFN signaling pathway” value in experiment [1] is “activation of the pathway was reduced”. In experiment [2], the “NFkB expression (luciferase)” value is “unable to elicit any response”.
